The record followed here is patent publication US11896713B2, “Strategies to enhance lung cancer treatment” (Rutgers, The State University of New Jersey, priority 2020, dated 2024).

One series relates to human lung cancer cells. Description: Orthotopic lung cancer model treated with liposomal cisplatin or carboplatin. It is filed as in vivo, mice. To be noted: intravenous, 2.5 mg/kg.
Series [1] deals with LHRH-positive lung cancer cells. Description: Cytotoxicity (MTT) and competitive inhibition by LHRH peptide. It is filed as cell-based. On the procedure: (§1) Cytotoxicity, Apoptosis Induction and Immune Response. The toxicities of the developed formulations were compared with a commercially used EGFR inhibitor gefitinib in three types of human lung cancer cells with different resistance to the drug. […] Cytotoxicity and apoptosis induction were analyzed by a modified 3-(4,5-Dimethylthiazol-2-yl)-2,5-diphenyltetrazolium bromide (MTT) assay and cell death detection ELISA Plus kit (Roche, Nutley, NJ), respectively. The cells were seeded on a 96 well plate at 10,000 cells per well with 100 μl of growth media in each well and placed in the incubator for 24 hours. After 24 hours, the media was removed and the cells were treated with varying concentrations of above indicated substances. The concentrations of tested substances were prepared using a serial dilution (1:2) to make 12 different working solutions for the cytotoxicity measurement.

The subject of the next series is A549 lung cancer cells. Description: Orthotopic lung cancer model, tumor volume. It is filed as in vivo, mice. To be noted: intravenous, TAX 2.5 mg/kg. On the procedure:
In Vivo Lung Cancer Model, Imaging and Treatment. All animal experiments were carried out according to the protocol approved by Institutional Animal Care and Use Committee (IACUC). Nude mice were purchased from the approved commercial vendor (Taconic, Germantown, NY). All aspects of the program for procurement, conditioning/quarantine, housing management, veterinary care and disposal of carcasses followed the guidelines set forth in the NIH Guide for the Care and Use of Laboratory Animals. Animals were housed in the […]—accredited animal facility with free access to food and water. Veterinary care was supplied by Rutgers University Lab Animal Services. Orthotopic lung cancer mouse model was created by intratracheal instillation of A549 lung cancer cells as previously described. The progression of tumor growth was monitored using bioluminescent and magnetic resonance (MRI) imaging. Luciferase transfected cancer cells were visualized in live anesthetized animals using in-vivo bioluminescence IVIS system (Xenogen, Alameda, CA). Luciferin (150 mg/kg) was intraperitoneally administered 10-15 minutes before imaging. […] Images (repetition time 2607 ms, echo time 44 ms) were recorded in Fast Spin Echo sequence. […] Magnetic resonance signal and tumor volume were calculated using VivoQuant 1.21 software (Invicro, Boston, MA). […]

For the next series, the system named is NCI-H1781 cells. The experiment in a line: Cytotoxicity (MTT). It is filed as cell-based, human. To be noted: 72 h, 1 μM. The method, then: as §1
The test system of a further series is NCI-H3255 cells. Description: Cytotoxicity (MTT). It is filed as cell-based, human. Conditions: 72 h, 1 μM. The method, then: as §1
For a further series, the system named is A549 cells. The experiment in a line: Cytotoxicity (MTT). It is filed as cell-based, human. Conditions: 72 h, 1 μM.
The test system of series [2] is NCI-H1781, A549 and NCI-H3255 NSCLC cell lines. Description: Apoptosis induction (cell death detection ELISA). It is filed as cell-based, human. Conditions: 72 h; 1 μM gefitinib or 0.3 ng/ml nanocarrier. On the procedure:
as §1
The control cells were incubated with fresh media. Previously validated in our laboratory MTT and apoptosis induction measurement protocols were used.

Entries after “also recorded” stand apart in the source; their conditions may differ. Residues, ends and D or L forms follow the SMILES beside them.

Procedure for human lung cancer cells: Orthotopic lung cancer mouse model was created by intratracheal instillation of human lung cancer cells. The progression of tumor growth was monitored using bioluminescent and magnetic resonance (MRI) imaging. Luciferase transfected cancer cells were visualized in live anesthetized animals using in-vivo bioluminescence IVIS system (Xenogen, Alameda, CA). Luciferin (150 mg/kg) was intraperitoneally administered 10-15 minutes before imaging. All imaging procedures were performed at special imaging facilities of the Rutgers University Molecular Imaging Center as previously described. Mice were anesthetized with isoflurane (4% for induction of anesthesia and 1-2% for maintenance) using XGI-8 Gas Anesthesia System (Xenogen, Alameda, CA) for all imaging procedures. MRI was performed using a 1 T M2™ whole body scanner (Aspect Imaging, Shoham, Israel). Images (repetition time 2607 ms, echo time 44 ms) were recorded in Fast Spin Echo sequence. At a spatial resolution of 312 μm, the tumors were coronal imaged in a single section through the mouse body using an image matrix of 256×256, a field of view of 80 mm^2, and 4 excitation. Magnetic resonance signal and tumor volume were calculated using VivoQuant 1.21 software (Invicro, Boston, MA).
In order to deliver liposome-based system by inhalation, a Collison nebulizer (BGI, Inc., Waltham, MA) was connected to four-port nose-only exposure chambers (the chamber was made by CH Technologies, Westwood, NJ according to our design). […] The installation was designed and regime of inhalation was selected to keep the inhalation dosage controllable and uniform from animal to animal with a minimal damage to the nanoparticles. The solution of NLC was aerosolized at a flow rate of 2 L/min and then diluted by an additional 2 L/min of air. […] It was also shown that the aerosol distribution between the four ports of the chamber was homogenous. The dose of Cis and Carb in all drug-containing formulations was 2.5 mg/kg for the single administration.

With `N.N.O=C([O-])C1(C(=O)[O-])CCC1.[Pt+2]` [Carb, carboplatin], the antitumor effect entry in the series on human lung cancer cells is on record as “slightly slowed the tumor progression; also recorded: somewhat higher antitumor activity”.

In the case of `N.N.[Cl][Pt][Cl]` [Cis, cisplatin], the antitumor effect result with human lung cancer cells is reported as “slightly slowed the tumor progression”.

On to `CCNC(=O)[C@@H]1CCCN1C(=O)[C@H](CCCNC(=N)N)NC(=O)[C@H](CC(C)C)NC(=O)[C@@H](CCCCNC(=O)[C@H](N)CS)NC(=O)[C@H](Cc1ccc(O)cc1)NC(=O)[C@H](CO)NC(=O)[C@H](Cc1c[nH]c2ccccc12)NC(=O)[C@H](Cc1c[nH]cn1)NC(=O)[C@@H](N)CCC(N)=O` [LHRH peptide, Gln-His-Trp-Ser-Tyr-DLys(D-Cys)-Leu-Arg-Pro] (HELM PEPTIDE1{Q.H.W.S.Y.[dK].L.R.P.[CCN[*:1]]}|PEPTIDE2{[dC]}$PEPTIDE1,PEPTIDE2,6:R3-1:R2$$$V2.0), for which the cytotoxicity result in series [1] is given as “did not demonstrate any toxicity”. Further, the “effect of LHRH receptor ligand on cytotoxicity of LHRH-NLC-TAX” value in series [1] (cells incubated with different concentrations of LHRH peptide) is “limited cytotoxicity of LHRH-NLC-TAX in a concentration-dependent manner”. Take `CC(=O)O[C@H]1C(=O)[C@@]2(C)[C@H]([C@H](OC(=O)c3ccccc3)[C@]3(O)C[C@H](OC(=O)[C@H](O)[C@@H](NC(=O)c4ccccc4)c4ccccc4)C(C)=C1C3(C)C)[C@]1(OC(C)=O)CO[C@@H]1C[C@@H]2O` [TAX, Paclitaxel]: the “decrease of lung tumor volume at the end of the experiment” value in the series on A549 lung cancer cells was found to be 1.1 times. For `COc1cc2ncnc(Nc3ccc(F)c(Cl)c3)c2cc1OCCCN1CCOCC1` [gefitinib], the sensitivity to gefitinib entry was “most resistant to gefitinib” in the series with NCI-H1781 cells, “the most sensitive to gefitinib” in the series on NCI-H3255 cells and “moderate sensitivity to gefitinib” in the series on A549 cells. For the same molecule, the apoptosis induction result in series [2] is “correlated with its cytotoxicity”.
